Tested on: capsaicin-sensitive sensory nerve
Assay: Capsaicin-induced Evans Blue pigment leakage into mouse bladder (capsaicin-sensitive sensory nerve inhibition)
Format: in vivo
Conditions: for inhibition of capsaicin-sensitive sensory nerve (summary): female Balb/c mouse bladder, capsaicin stimulation
Method: A female Balb/c mouse (Japan SLC) which had been anesthetized by intraperitoneally administering 0.15 ml of 20% urethane was subjected to tracheal cannulation, using a polyethylene tube PE 50. A polyethylene tube PE 10 was inserted into the bladder via a urethra, and hydrochloride of ethyl (−)-2-[4-[2-[[(1S,2R)-2-hydroxy-2-(4-hydroxyphenyl)-1-methy lethyl]amino]ethyl]-2,5-dimethylphenoxy]acetate (to be referred to as “compound 1” hereinafter), which had been dissolved in physiological saline and 2 equivalents of sodium hydroxide to a concentration of 10 μM and further diluted to various concentrations with physiological saline, was injected through the tube. After 1 hour from the injection, a solution (10 ml/kg) of Evans Blue (30 mg/kg) and capsaicin (0.3 mg/kg) dissolved in physiological saline containing 0.1% DMSO and 0.1% Tween 80 was administered through caudal vein. Precisely 5 minutes after the administration, the animal was sacrificed by cervical vertebrae dislocation to extract the bladder. After removing urine and blood from the extracted bladder, wet weight of the bladder was measured, and the extracted bladder was put into each well of a 96 well microplate into which formamide had been dispensed in 150 μl portions in advance. After soaking the bladder overnight in formamide, the pigment in the bladder tissue was determined by measuring absorbance of 100 μl of the supernatant at a wavelength of 620 nm. In addition, the amount of the Evans Blue pigment per 1 mg bladder wet weight was calculated. In this connection, a mouse in which physiological saline was injected into the bladder and the Evans Blue solution containing no capsaicin was administered thereto was used as the normal control.
The results are shown in FIG. 1 by average value ± standard deviation. Inter-group significant difference between normal control group and capsaicin stimulation group was examined by student's t-test. Inter-group significant difference between compound 1 administration group and un-administration group was examined by a one dimensional analysis of variation and subsequent Dunnett's inter-multigroup comparison. A value of p<0.05 was regarded as significant.
The pigment in the bladder tissue was determined in the same manner as in Test Example 1, except that Tolterodine was used instead of the compound 1 and Hartman's solution was used instead of the physiological saline and 2 equivalents of sodium hydroxide. In this connection, a mouse in which Hartman's solution was injected into the bladder and the Evans Blue solution containing no capsaicin was administered thereto was used as the normal control.

[1] = female Balb/c mouse, injected into the bladder 1 hour before i.v. Evans Blue 30 mg/kg + capsaicin 0.3 mg/kg, various concentrations, vs solvent group

Structure (SMILES) | inhibition of capsaicin-sensitive sensory nerve (summary) | amount of Evans Blue pigment in bladder tissue [1] | amount of Evans Blue pigment in bladder tissue (1 μM administration group, injected into the bladder, p<0.01 vs solvent group)
Cc1ccc(O)c([C@H](CCN(C(C)C)C(C)C)c2ccccc2)c1 [Tolterodine, reference compound] | did not inhibit the capsaicin-sensitive sensory nerve | Significant difference in the amount of Evans Blue pigment was not found | 
CCOC(=O)COc1cc(C)c(CCN[C@@H](C)[C@H](O)c2ccc(O)cc2)cc1C [compound 1, ethyl (−)-2-[4-[2-[[(1S,2R)-2-hydroxy-2-(4-hydroxyphenyl)-1-methylethyl]amino]ethyl]-2,5-dimethylphenoxy]acetate] | markedly inhibited the capsaicin-sensitive sensory nerve | concentration-dependently reduced the amount of Evans Blue pigment | significantly reduced
